From PMC6598759, “In vitro genotoxicity of nitroimidazoles as a tool in the search of new trypanocidal agents” (Memórias do Instituto Oswaldo Cruz, 2019)
Like-named read-outs stand apart in the source and are kept apart here.

What was measured:
[1] = tested on: whole human blood cells (WHBC); assay: In vitro cytokinesis-block micronucleus assay (CBMN) with whole human blood cells
Description: In vitro cytokinesis-block micronucleus assay (CBMN) with whole human blood cells (WHBC) - Heparinised WHBC samples were obtained by venipuncture from volunteers as described above. […] WHBC cultures exposed to mitomycin C (MMC) (1.0 µg/mL in water) (Bristol, USA) for 2 h or to N-deacetyl-N-methylcolchicine in water (Demecolcine: Sigma-Aldrich) 0.02 µg/mL for 28 h were used as positive control cultures. After the treatment, the WHBC cultures were centrifuged (900 rpm, 10 min) and washed with 5 mL PBS. […] CytB has cytokinesis-block activity leading to the formation of binucleate cells. […] The fixed cell suspension was dropped on a clean glass slide and the slide was air-dried on a heating plate (60 °C). Air-dried slides were stained with 60 µg/mL acridine orange in Sörensen buffer (0.03 M KH2PO4, 0.03 M Na2HPO4) for 3s, then they were embedded in distilled water and covered with a coverslip. MN showing bright green fluorescence were analysed using a fluorescence microscope at 400 X magnification. MN were scored in 2,000 binucleated cells (BNC) for culture and the number of the micronucleate cells (MNC) in 2,000 BNC was determined. Cytotoxicity was measured using the cytokinesis-block proliferation index (CBPI) and the replication index (RI) which were calculated from 500 cells. The CBPI indicates the average number of nuclei per cell, and may be used to calculate cell proliferation. The RI indicates the relative number of cell cycles per cell during the period of exposure to cytoB in treated cultures compared to control cultures and can be used to calculate the % cytostasis. CBPI was calculated according to the formula: CBPI = [(No. mononucleate cells) + (2 x No. binucleate cells) + (3 x No. multinucleate cells)] / N, where N indicates the total number of cells scored. RI (%) was calculated according to the formula:
RI %=((No. binucleate cells) + (2 x No. multinucleate cells)) ÷ (Total number of cells)T/((No. binucleate cells) + (2 x No. multinucleate cells)) ÷ (Total number of cells)C x 100
where T indicates treated cultures and C control cultures
Cytotoxicity was evidenced in the occurrence of reduction in CBPI or RI of cultures treated by test substances when compared to control cultures. The measurement of cytotoxicity was used to select the concentrations of the test substance to be analysed for the presence of MN. […] However, it was adopted in this work as the maximum concentration in CBMN one that induced a proliferation inhibition not exceeding about 50% established by ICH S2 (R1) for lymphocyte cultures.
The chi-square test for trend was performed to analyse if the increase of MNC was concentration-related.[30]

[2] = tested on: whole human blood cells (WHBC); conditions: 149-6,400 µM, 2 h, p > 0.1; cited from earlier work
[3] = tested on: bloodstream trypomastigotes form Y strain of T. cruzi; conditions: read-out: IC50/24 h (concentration that produces 50% lysis of the parasites), trypomastigote forms; cited from earlier work
[4] = tested on: whole human blood cells (WHBC); conditions: cited from earlier work; for percentage decrease in cell viability: 2 h

**Q.** Which CBPI ([1]; 150 µM, 4 h) does the source give for `Cn1c([N+](=O)[O-])cnc1-c1nnc(N)[nH]1` [Compound 4] here?
**A.** 1.220

**Q.** What about the NMNC/2000 binucleated cells ([1]; 150 µM, 4 h) of the same molecule?
**A.** 28

**Q.** What about the “RI (%)” value ([1]; 150 µM, 4 h) of the same molecule?
**A.** 106%

**Q.** What about the CBPI ([1]; 640 µM, 4 h) of the same molecule?
**A.** 1.230

**Q.** What about the NMNC/2000 binucleated cells ([1]; 640 µM, 4 h) of the same molecule?
**A.** 36

**Q.** What about the “RI (%)” value ([1]; 640 µM, 4 h) of the same molecule?
**A.** 107%

**Q.** And the CBPI ([1]; 1,600 µM, 4 h)?
**A.** 1.218

**Q.** What about the NMNC/2000 binucleated cells ([1]; 1,600 µM, 4 h) of the same molecule?
**A.** 44

**Q.** What about the “RI (%)” value ([1]; 1,600 µM, 4 h) of the same molecule?
**A.** 76%

**Q.** What about the CBPI ([1]; 4,000 µM, 4 h) of the same molecule?
**A.** 1.054

**Q.** What about the “RI (%)” value ([1]; 4,000 µM, 4 h) of the same molecule?
**A.** 22%

**Q.** What about the CBPI ([1]; 10,000 µM, 4 h) of the same molecule?
**A.** 1.052

**Q.** What about the “RI (%)” value ([1]; 10,000 µM, 4 h) of the same molecule?
**A.** 23%

**Q.** And the “maximum concentration used in MN analysis (inducing in the maximum 50% reduction of CBPI or RI)” value ([1]; 4 h, relative to solvent-control)?
**A.** 1,600 μM

**Q.** And the “concentrations with significant mutagenic effect (increase of MNC)” value ([1]; 4 h, p < 0.01 for 3, p < 0.05 for 4 and 7)?
**A.** 1,600 μM

**Q.** What about the “result in the CBMN” value ([1]; overall call) of the same molecule?
**A.** clastogenic and/or aneugenic

**Q.** And the “DNA strand breaks compared to solvent-control” value [2]?
**A.** did not cause DNA strand breaks

**Q.** What about the IC50 [3] of the same molecule?
**A.** 257 ± 53 µM

**Q.** And the “percentage decrease in cell viability” value ([4]; 149 µM)?
**A.** 1.0%

**Q.** And the “percentage decrease in cell viability” value ([4]; 238 µM)?
**A.** 1.0%

**Q.** And the “percentage decrease in cell viability” value ([4]; 382 µM)?
**A.** 1.0%

**Q.** What about the “percentage decrease in cell viability” value ([4]; 610 µM) of the same molecule?
**A.** 0%

**Q.** What about the “percentage decrease in cell viability” value ([4]; 1,562 µM) of the same molecule?
**A.** 1.0%

**Q.** What about the “percentage decrease in cell viability” value ([4]; 2,500 µM) of the same molecule?
**A.** 1.0%

**Q.** And the “percentage decrease in cell viability” value ([4]; 4,000 µM)?
**A.** 0%

**Q.** What about the “percentage decrease in cell viability” value ([4]; 6,400 µM) of the same molecule?
**A.** 0%

**Q.** And the lethality variation range ([4]; 149-6,400 µM, 2 h at 37 °C, compared to solvent-control)?
**A.** 1-4%
